The inhibition in vivo is the share of the control response that was lost under treatment.

Our source for the Activity and inhibition in vivo values is ChEMBL document CHEMBL4808189, “The combination of sesamol and clofibric acid moieties leads to a novel potent hypolipidemic agent with antioxidant, anti-inflammatory and hepatoprotective activity” (Bioorg Med Chem Lett, 2021).

Each structure is given as a SMILES string. The source made the active and inactive calls. The rule behind the calls is not given here.

Series [1] is described as follows: Hepatotoxicity in Kunming mouse assessed as induction of inflammatory response by measuring upregulation of IL-6 level in liver at 412 mg/kg, ig for 1 month by western blot analysis. As to conditions: in vivo, po, 730 h, time 1 months. In kind it is toxicity, organism-based.
A short description of series [2]: Hepatotoxicity in Kunming mouse assessed as increase in hepatic weight at 412 mg/kg, ig for 1 month. Type of series: toxicity, organism-based. Conditions: in vivo, po, 730 h, time 1 months.
Series [3] is described as follows: Hepatotoxicity in Kunming mouse assessed as increase in plasma alkaline phosphatase level at 412 mg/kg, ig for 1 month. As to conditions: in vivo, po, 730 h, time 1 months. Type of series: toxicity, organism-based.
Series [4] deals with Mus musculus. As to the kind of experiment: Hypolipidemic activity in TritonWR1339-induced hyperlipidemic Kunming mouse model assessed as reduction in plasma TG level at 0.362 mmol/kg, ig administered for 7 days. In kind it is functional. As to conditions: po, 168 h, time 7 day.
Series [5] can be described thus: Hepatotoxicity in Kunming mouse assessed as increase in plasma total protein level at 412 mg/kg, ig for 1 month. In kind it is toxicity, organism-based. Conditions: in vivo, po, 730 h, time 1 months.
Series [6] deals with Mus musculus. As to the kind of experiment: Hypolipidemic activity in TritonWR1339-induced hyperlipidemic Kunming mouse model assessed as reduction in plasma TC level at 0.362 mmol/kg, ig administered for 7 days. Type of series: functional. Conditions: po, 168 h, time 7 day.
A short description of series [7]: Hepatotoxicity in Kunming mouse assessed as induction of oxidative stress by measuring decrease in plasma GSH level at 412 mg/kg, ig for 1 month. Type of series: toxicity, organism-based. Conditions: in vivo, po, 730 h, time 1 months.
The nature of series [8]: Hepatotoxicity in Kunming mouse assessed as induction of oxidative stress by measuring decrease in plasma CAT level at 412 mg/kg, ig for 1 month. In kind it is toxicity, organism-based. As to conditions: in vivo, po, 730 h, time 1 months.
Series [9] is described as follows: Upregulation of p-NF-kB-p65 protein expression in Kunming mouse liver at 412 mg/kg, ig for 1 month by western blot analysis. In kind it is ADME, organism-based. Conditions: in vivo, po, 730 h, time 1 months. In general terms: A western blot detects proteins with antibodies after separation by electrophoresis.
A short description of series [10]: Hepatotoxicity in Kunming mouse assessed as increase in plasma alanine aminotransferase level at 412 mg/kg, ig for 1 month. Conditions: in vivo, po, 730 h, time 1 months. Type of series: toxicity, organism-based.
Series [11] in a line: Hepatotoxicity in Kunming mouse assessed as hepatocyte swelling at 412 mg/kg, ig for 1 month by H and E staining based analysis. In kind it is toxicity, organism-based. Conditions: in vivo, po, 730 h, time 1 months.
Series [12] is described as follows: Hepatotoxicity in Kunming mouse assessed as induction of oxidative stress by measuring increase in plasma MDA level at 412 mg/kg, ig for 1 month. Type of series: toxicity, organism-based. As to conditions: in vivo, po, 730 h, time 1 months.
Series [13] is described as follows: Hepatotoxicity in Kunming mouse assessed as induction of oxidative stress by measuring decrease in plasma superoxide dismutase level at 412 mg/kg, ig for 1 month. As to conditions: in vivo, po, 730 h, time 1 months. In kind it is toxicity, organism-based.
Series [14] can be described thus: Hepatotoxicity in Kunming mouse assessed as increase in plasma aspartate transaminase level at 412 mg/kg, ig for 1 month. Conditions: in vivo, po, 730 h, time 1 months. In kind it is toxicity, organism-based.
Series [15] concerns Mus musculus. As to the kind of experiment: Upregulation of Nrf2 protein expression in Kunming mouse liver nucleus at 412 mg/kg, ig for 1 month by western blot analysis. Type of series: functional, organism-based. Conditions: time 1.0 months.
Series [16] can be described thus: Hepatotoxicity in Kunming mouse assessed as cell infiltration in central vein and inflammatory cell infiltration at 412 mg/kg, ig for 1 month by H and E staining based analysis. Type of series: toxicity, organism-based. Conditions: in vivo, po, 730 h, time 1 months.
Series [17] has as its system Mus musculus. As to the kind of experiment: Upregulation of HO-1 protein expression in Kunming mouse liver at 412 mg/kg, ig for 1 month by western blot analysis. Type of series: functional, organism-based. As to conditions: time 1.0 months.
A short description of series [18]: Acute toxicity in Kunming mouse assessed as change in body weight at 412 mg/kg, ig for 1 month. In kind it is organism-based. Conditions: in vivo, po, 730 h, time 1 months.
Series [19] is described as follows: Hepatotoxicity in Kunming mouse assessed as induction of inflammatory response by measuring upregulation of TNF-alpha level in liver at 412 mg/kg, ig for 1 month by western blot analysis. In kind it is toxicity, organism-based. As to conditions: in vivo, po, 730 h, time 1 months.
Series [20] can be described thus: Hepatotoxicity in Kunming mouse assessed as increase in liver coefficient at 412 mg/kg, ig for 1 month. As to conditions: in vivo, po, 730 h, time 1 months. Type of series: toxicity, organism-based.
Series [21] deals with Mus musculus. The series can be described thus: Upregulation of HO-1 protein expression in Kunming mouse liver at 300 mg/kg, ig for 1 month by western blot analysis. Type of series: functional, organism-based. Conditions: time 1.0 months.
The nature of series [22]: Hepatotoxicity in Kunming mouse assessed as increase in plasma total protein level at 300 mg/kg, ig for 1 month. Type of series: toxicity, organism-based. As to conditions: in vivo, po, 730 h, time 1 months.
The nature of series [23]: Hepatotoxicity in Kunming mouse assessed as increase in hepatic weight at 300 mg/kg, ig for 1 month. As to conditions: in vivo, po, 730 h, time 1 months. In kind it is toxicity, organism-based.
Series [24] is described as follows: Hepatotoxicity in Kunming mouse assessed as induction of oxidative stress by measuring decrease in plasma superoxide dismutase level at 300 mg/kg, ig for 1 month. As to conditions: in vivo, po, 730 h, time 1 months. Type of series: toxicity, organism-based.
Series [25] can be described thus: Hepatotoxicity in Kunming mouse assessed as increase in plasma aspartate transaminase level at 300 mg/kg, ig for 1 month. As to conditions: in vivo, po, 730 h, time 1 months. In kind it is toxicity, organism-based.
Series [26] in a line: Hepatotoxicity in Kunming mouse assessed as induction of inflammatory response by measuring upregulation of TNF-alpha level in liver at 300 mg/kg, ig for 1 month by western blot analysis. Type of series: toxicity, organism-based. As to conditions: in vivo, po, 730 h, time 1 months.
A short description of series [27]: Hepatotoxicity in Kunming mouse assessed as increase in plasma alanine aminotransferase level at 300 mg/kg, ig for 1 month. As to conditions: in vivo, po, 730 h, time 1 months. In kind it is toxicity, organism-based.
Series [28] in a line: Hepatotoxicity in Kunming mouse assessed as induction of oxidative stress by measuring decrease in plasma GSH level at 300 mg/kg, ig for 1 month. Type of series: toxicity, organism-based. As to conditions: in vivo, po, 730 h, time 1 months.
Series [29] can be described thus: Hepatotoxicity in Kunming mouse assessed as increase in plasma alkaline phosphatase level at 300 mg/kg, ig for 1 month. Type of series: toxicity, organism-based. Conditions: in vivo, po, 730 h, time 1 months.
The nature of series [30]: Hepatotoxicity in Kunming mouse assessed as large areas of hepatocyte swelling, necrosis, loose cytoplasm, nuclear degeneration and dissolution at 300 mg/kg, ig for 1 month by H and E staining based analysis. Type of series: toxicity, organism-based. As to conditions: in vivo, po, 730 h, time 1 months.
Series [31] relates to Mus musculus. The series can be described thus: Upregulation of Nrf2 protein expression in Kunming mouse liver nucleus at 300 mg/kg, ig for 1 month by western blot analysis. Conditions: time 1.0 months. Type of series: functional, organism-based.
A short description of series [32]: Hepatotoxicity in Kunming mouse assessed as increase in liver coefficient at 300 mg/kg, ig for 1 month. Type of series: toxicity, organism-based. As to conditions: in vivo, po, 730 h, time 1 months.
The nature of series [33]: Hepatotoxicity in Kunming mouse assessed as induction of inflammatory response by measuring upregulation of IL-6 level in liver at 300 mg/kg, ig for 1 month by western blot analysis. In kind it is toxicity, organism-based. Conditions: in vivo, po, 730 h, time 1 months.
A short description of series [34]: Acute toxicity in Kunming mouse assessed as change in body weight at 300 mg/kg, ig for 1 month. In kind it is organism-based. As to conditions: in vivo, po, 730 h, time 1 months.
Series [35] is described as follows: Hepatotoxicity in Kunming mouse assessed as cell infiltration in central vein and inflammatory cell infiltration at 300 mg/kg, ig for 1 month by H and E staining based analysis. In kind it is toxicity, organism-based. Conditions: in vivo, po, 730 h, time 1 months.
Series [36] in a line: Hepatotoxicity in Kunming mouse assessed as induction of oxidative stress by measuring decrease in plasma CAT level at 300 mg/kg, ig for 1 month. Conditions: in vivo, po, 730 h, time 1 months. In kind it is toxicity, organism-based.
The nature of series [37]: Upregulation of p-NF-kB-p65 protein expression in Kunming mouse liver at 300 mg/kg, ig for 1 month by western blot analysis. In kind it is ADME, organism-based. Conditions: in vivo, po, 730 h, time 1 months.
Series [38] can be described thus: Hepatotoxicity in Kunming mouse assessed as induction of oxidative stress by measuring increase in plasma MDA level at 300 mg/kg, ig for 1 month. Type of series: toxicity, organism-based. As to conditions: in vivo, po, 730 h, time 1 months.

With `CC(C)(Oc1ccc(Cl)cc1)C(=O)Oc1ccc2c(c1)OCO2`, the Activity entry in [1] was “Non-Toxic”; in [2] it was “Non-Toxic”; in [3], “Non-Toxic”; in [5], “Non-Toxic”; in series [7] it was “Toxic”; in series [8], “Non-Toxic”. In addition, the Activity entry is reported as “Non-Toxic” in series [9]; “Non-Toxic” in [10]; “Toxic” in [11]; “Non-Toxic” in series [12]; “Non-Toxic” in [13]; “Non-Toxic” in [14]. Moreover, the Activity result in [16], in series [18], in series [19] and in [20] was “Non-Toxic” throughout. Also, the inhibition in vivo at 362 µmol/kg in the series on Mus musculus [4] was 38.6%; in the series on Mus musculus [6], 35.1%. Besides, the result in the series with Mus musculus [15] and in the series on Mus musculus [17] was Active.
On to `CCOC(=O)C(C)(C)Oc1ccc(Cl)cc1` [CLOFIBRATE], for which the result in the series on Mus musculus [21] and with Mus musculus [31] was inactive. The Activity entry in series [22], in series [23], in series [24], in series [25], in series [26] and in [27] was “Toxic” throughout. Further, the Activity result in series [28] was “Toxic”; in [29] it was “Toxic”; in series [30], “Toxic”; in [32], “Toxic”; in series [33], “Toxic”; in [34] it was “Non-Toxic”. Besides, the Activity result in [35], in series [36], in series [37] and in [38] was “Toxic” throughout. Besides, the inhibition in vivo at 362 µmol/kg with Mus musculus [4] came to 25.5%; in the series with Mus musculus [6] it was 21.2%.
